Test results from ChEMBL document CHEMBL3860071, “Discovery and structure-activity relationship studies of quinolinone derivatives as potent IL-2 suppressive agents” (Bioorg Med Chem, 2016).
The source made the active and inactive calls. The calls are words filed in the database; no cut-off is given here.

Columns and labels:
[1] = system: Jurkat; test: Immunosuppressive activity in human PMA/ionomycin stimulated Jurkat T cells assessed as suppression of IL2 production at 1 uM pretreated with cells followed by PMA/ionomycin stimulation measured after 13 hrs by ELISA; assay type: functional
[2] = Cytotoxicity against human Jurkat T cells assessed as cell survival at 10 uM measured after 3 days by MTT assay; assay type: toxicity, cell-based; conditions: read-out: Survival
[3] = system: Jurkat; test: Immunosuppressive activity in human PMA/ionomycin stimulated Jurkat T cells assessed as suppression of IL2 production at 10 uM pretreated with cells followed by PMA/ionomycin stimulation measured after 13 hrs by ELISA; assay type: functional
[4] = system: Jurkat; test: Immunosuppressive activity in human PMA/ionomycin stimulated Jurkat T cells assessed as suppression of IL2 production pretreated with cells followed by PMA/ionomycin stimulation measured after 13 hrs by ELISA; assay type: functional, cell-based
[5] = Half life in mouse liver […] S9 fraction at 5 uM in presence of NADPH by LC-MS/MS analysis; assay type: ADME, subcellular
[6] = target: T1, Nuclear factor of activated T-cells, cytoplasmic 1 (Homo sapiens) (UniProt O95644); test: Reduction in NFATc1 nuclear localization in human anti-CD3/anti-CD28 stimulated Jurkat T cells at 10 ug measured after 15 mins by SDS-PAGE and immunoblot analysis; assay type: cell-based
T1 sequence (whole entry): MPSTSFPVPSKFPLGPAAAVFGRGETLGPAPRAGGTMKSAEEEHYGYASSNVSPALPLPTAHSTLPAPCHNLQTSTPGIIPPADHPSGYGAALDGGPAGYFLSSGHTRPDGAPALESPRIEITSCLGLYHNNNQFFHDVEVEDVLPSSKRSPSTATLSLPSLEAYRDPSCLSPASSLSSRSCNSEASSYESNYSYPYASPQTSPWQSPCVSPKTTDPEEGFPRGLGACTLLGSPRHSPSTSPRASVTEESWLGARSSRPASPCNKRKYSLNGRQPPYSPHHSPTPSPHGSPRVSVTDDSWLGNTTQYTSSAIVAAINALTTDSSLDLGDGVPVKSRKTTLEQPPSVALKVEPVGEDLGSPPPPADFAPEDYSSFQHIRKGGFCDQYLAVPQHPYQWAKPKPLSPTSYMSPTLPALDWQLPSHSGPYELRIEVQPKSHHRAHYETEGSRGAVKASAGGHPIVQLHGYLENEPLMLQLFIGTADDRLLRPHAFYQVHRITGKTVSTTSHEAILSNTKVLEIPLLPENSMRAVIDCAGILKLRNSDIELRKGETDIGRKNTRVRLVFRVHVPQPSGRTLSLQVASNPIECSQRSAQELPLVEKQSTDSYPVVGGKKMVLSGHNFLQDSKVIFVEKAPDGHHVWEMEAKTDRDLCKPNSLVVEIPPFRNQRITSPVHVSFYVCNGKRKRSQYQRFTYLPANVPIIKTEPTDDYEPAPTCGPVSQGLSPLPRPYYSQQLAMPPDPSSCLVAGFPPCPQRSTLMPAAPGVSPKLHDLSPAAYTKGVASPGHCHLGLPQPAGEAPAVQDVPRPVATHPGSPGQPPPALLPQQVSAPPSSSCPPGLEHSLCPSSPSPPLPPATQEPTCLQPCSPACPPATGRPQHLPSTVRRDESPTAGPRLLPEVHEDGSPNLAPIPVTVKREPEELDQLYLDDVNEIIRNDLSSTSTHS

[7] = system: Jurkat; test: Inhibition of NFkappaB activation in human anti-CD3/anti-CD28 stimulated Jurkat T cells at 10 uM measured by renilla luciferase reporter gene assay relative to control; assay type: cell-based
[8] = Half life in human liver S9 fraction at 5 uM in presence of NADPH by LC-MS/MS analysis; assay type: ADME, subcellular
[9] = target: T2, CYP2C9 (Homo sapiens, UniProt P11712); test: Inhibition of recombinant human CYP2C9 expressed in baculosomes at 10 uM preincubated with protein prior to substrate addition measured after 40 mins in presence of NADP regeneration system by fluorimetric analysis; assay type: ADME
T2 sequence (P11712 whole entry): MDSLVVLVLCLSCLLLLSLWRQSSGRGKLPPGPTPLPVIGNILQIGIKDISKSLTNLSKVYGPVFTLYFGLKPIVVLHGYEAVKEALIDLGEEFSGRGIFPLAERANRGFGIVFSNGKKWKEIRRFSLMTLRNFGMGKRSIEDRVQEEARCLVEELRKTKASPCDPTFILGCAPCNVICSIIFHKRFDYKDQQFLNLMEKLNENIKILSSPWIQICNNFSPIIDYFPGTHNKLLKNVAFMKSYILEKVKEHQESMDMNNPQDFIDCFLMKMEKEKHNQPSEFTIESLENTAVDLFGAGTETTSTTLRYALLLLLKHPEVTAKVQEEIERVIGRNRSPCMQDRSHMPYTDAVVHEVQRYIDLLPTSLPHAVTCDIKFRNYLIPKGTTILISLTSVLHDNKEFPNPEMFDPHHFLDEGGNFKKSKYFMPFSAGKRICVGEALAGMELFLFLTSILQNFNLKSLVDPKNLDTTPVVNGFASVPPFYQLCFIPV

[10] = system: Jurkat; test: Immunosuppressive activity in human anti-CD3/anti-CD28 stimulated Jurkat T cells assessed as suppression of IL2 production at 10 uM pretreated with cells followed by anti-CD3/CD28 stimulation measured after 13 hrs by ELISA; assay type: functional
[11] = target: T3, NF-kappa-B inhibitor alpha (Homo sapiens) (UniProt P25963); test: Inhibition of IkappaBalpha phosphorylation in human anti-CD3/anti-CD28 stimulated Jurkat T cells at 10 uM pretreated with cells followed by anti-CD3/anti-CD28 stimulation measured up to 60 mins immunoblot analysis; assay type: cell-based
T3 sequence (whole entry): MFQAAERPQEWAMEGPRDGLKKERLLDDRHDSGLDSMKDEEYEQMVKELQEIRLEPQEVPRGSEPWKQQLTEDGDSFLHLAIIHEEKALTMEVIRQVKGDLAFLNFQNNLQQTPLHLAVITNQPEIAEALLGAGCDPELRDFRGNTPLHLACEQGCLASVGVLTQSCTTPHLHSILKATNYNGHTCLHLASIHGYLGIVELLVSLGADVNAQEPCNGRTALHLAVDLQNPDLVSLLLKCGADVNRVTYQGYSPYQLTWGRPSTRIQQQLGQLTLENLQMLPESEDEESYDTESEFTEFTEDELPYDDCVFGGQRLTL

[12] = Half life in rat liver […] S9 fraction at 5 uM in presence of NADPH by LC-MS/MS analysis; assay type: ADME, subcellular
[13] = target: T4, Inhibitor of nuclear factor kappa-B kinase subunit beta (Homo sapiens) (UniProt O14920); test: Inhibition of recombinant full length human N-terminal His6-tagged IKKbeta expressed in baculovirus infected sf21 cells at 10 uM using IKKtide as substrate after 40 mins in presence of [gamma33P]ATP by scintillation counting method relative to control
T4 sequence (whole entry): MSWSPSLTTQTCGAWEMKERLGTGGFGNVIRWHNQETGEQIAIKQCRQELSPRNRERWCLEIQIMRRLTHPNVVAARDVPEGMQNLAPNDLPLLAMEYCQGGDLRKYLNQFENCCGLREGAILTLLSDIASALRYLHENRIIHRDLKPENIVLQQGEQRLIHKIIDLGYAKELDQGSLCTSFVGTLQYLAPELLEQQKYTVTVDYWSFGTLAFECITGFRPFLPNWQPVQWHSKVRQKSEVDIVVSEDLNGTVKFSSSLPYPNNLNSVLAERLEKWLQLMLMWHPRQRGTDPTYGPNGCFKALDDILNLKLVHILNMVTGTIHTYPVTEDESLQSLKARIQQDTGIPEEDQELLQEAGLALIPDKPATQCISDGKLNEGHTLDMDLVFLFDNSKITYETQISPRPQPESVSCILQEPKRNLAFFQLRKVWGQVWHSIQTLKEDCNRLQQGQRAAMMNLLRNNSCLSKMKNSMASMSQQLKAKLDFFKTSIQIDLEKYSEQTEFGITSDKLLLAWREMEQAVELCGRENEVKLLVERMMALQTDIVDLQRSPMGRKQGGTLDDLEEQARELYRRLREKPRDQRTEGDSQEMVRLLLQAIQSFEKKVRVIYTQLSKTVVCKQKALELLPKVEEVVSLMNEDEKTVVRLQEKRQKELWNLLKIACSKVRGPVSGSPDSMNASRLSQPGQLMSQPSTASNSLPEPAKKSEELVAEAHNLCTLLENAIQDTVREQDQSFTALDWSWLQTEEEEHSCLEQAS

[14] = target: T2, CYP2C9; test: Inhibition of recombinant human CYP2C9 expressed in baculosomes at 1 uM preincubated with protein prior to substrate addition measured after 40 mins in presence of NADP regeneration system by fluorimetric analysis; assay type: ADME

Row | Structure (SMILES) | inhibition at 1 µM [1] | viability at 72 h, 10 µM [2] | IC50 [4] | also measured
1 | COc1ccc(Cn2c(=O)c(C(=O)NCCc3ccc(OC)c(O)c3)cc3c(N)cccc32)cc1 | 37% | 99% | – | –
2 | CCN(C(=O)c1c(O)c2c(Cl)cccc2n(C)c1=O)c1ccccc1 [LAQUINIMOD] | – | – | – | inhibition at 10 µM [3]: 16%
3 | O=C(NCCc1ccccc1)c1cc2c([N+](=O)[O-])cccc2n(Cc2ccc([N+](=O)[O-])cc2)c1=O | – | 97% | 0.353 µM | –
4 | COc1ccc(Cn2c(=O)c(C(=O)NCC(C)C)cc3c(N)cccc32)cc1 | – | 99% | – | –
5 | COc1ccc(Cn2c(=O)c(C(=O)NCCc3ccc(O)cc3)cc3c(N)cccc32)cc1 | 20% | 97% | – | –
6 | O=C(NCCc1ccccc1)c1cc2c([N+](=O)[O-])cccc2n(Cc2ccccc2)c1=O | – | 91% | – | –
7 | C/C=C/C[C@@H](C)[C@@H](O)[C@H]1C(=O)N[C@@H](CC)C(=O)N(C)CC(=O)N(C)[C@@H](CC(C)C)C(=O)N[C@@H](C(C)C)C(=O)N(C)[C@@H](CC(C)C)C(=O)N[C@@H](C)C(=O)N[C@H](C)C(=O)N(C)[C@@H](CC(C)C)C(=O)N(C)[C@@H](CC(C)C)C(=O)N(C)[C@@H](C(C)C)C(=O)N1C [CYCLOSPORINE] | – | – | 0.011 µM | –
8 | COc1ccc(Cn2c(=O)c(C(=O)NCCc3ccccc3)cc3c(N)cccc32)cc1 | 41% | 98% | – | –
9 | COCCCNC(=O)c1cc2c(N)cccc2n(Cc2ccc(OC)cc2)c1=O | – | 97% | – | –
10 | COc1ccc(Cn2c(=O)c(C(=O)NCCc3ccc(Cl)cc3)cc3c(N)cccc32)cc1 | 19% | 96% | – | –
11 | O=C(NCCc1ccccc1)c1cc2c([N+](=O)[O-])cccc2n(Cc2ccc(Cl)cc2)c1=O | 39% | 97% | – | –
12 | COc1cccc(Cn2c(=O)c(C(=O)NCCc3ccccc3)cc3c([N+](=O)[O-])cccc32)c1 | 16% | 97% | – | –
13 | COc1ccc(Cn2c(=O)c(C(=O)NCCc3ccccc3)cc3c(Cl)cccc32)cc1 | 44% | 87% | – | –
14 | O=C(NCCc1ccccc1)c1cc2c([N+](=O)[O-])cccc2n(Cc2ccc(F)cc2)c1=O | – | 98% | 0.72 µM | –
15 | COc1ccc(Cn2c(=O)c(C(=O)NCCc3ccc4c(c3)OCO4)cc3c(N)cccc32)cc1 | 31% | 96% | – | –
16 | CC(C)(C)c1ccc(Cn2c(=O)c(C(=O)NCCc3ccccc3)cc3c([N+](=O)[O-])cccc32)cc1 | – | 94% | 0.386 µM | –
17 | COc1ccc(CCNC(=O)c2cc3c(N)cccc3n(Cc3ccc(OC)cc3)c2=O)cc1 | 25% | 96% | – | –

Row | Structure (SMILES) | inhibition at 1 µM [1] | viability at 72 h, 10 µM [2] | IC50 [4] | also measured
18 | O=C(NCCc1ccccc1)c1cc2c([N+](=O)[O-])cccc2n(Cc2ccc(Br)cc2)c1=O | – | 64% | 0.78 µM | –
19 | CCc1ccc(CCNC(=O)c2cc3c(N)cccc3n(Cc3ccc(OC)cc3)c2=O)cc1 | – | 97% | – | –
20 | CC(C)c1ccc(Cn2c(=O)c(C(=O)NCCc3ccccc3)cc3c([N+](=O)[O-])cccc32)cc1 | – | 93% | 0.08 µM | half-life at 5 µM [5]: 7 min; inhibition [6]: Active; inhibition [7]: Active; half-life at 5 µM [8]: 7 min; inhibition at 40 min, 10 µM [9]: 65%; inhibition at 10 µM [10]: 83%; inhibition [11]: Active; half-life at 5 µM [12]: 7 min; inhibition [13]: 29%; inhibition at 40 min, 1 µM [14]: 30%
21 | COc1ccc(Cn2c(=O)c(C(=O)NCc3ccccc3)cc3c(N)cccc32)cc1 | 30% | 98% | – | –
22 | O=C(NCCc1ccccc1)c1cc2c([N+](=O)[O-])cccc2n(Cc2ccc(OC(F)(F)F)cc2)c1=O | – | 96% | 0.16 µM | inhibition at 10 µM [10]: 79%
23 | CCc1ccc(Cn2c(=O)c(C(=O)NCCc3ccccc3)cc3c(Cl)cccc32)cc1 | – | 97% | 0.401 µM | –
24 | COc1ccc(Cn2c(=O)c(C(=O)NCCc3ccccc3)cc3ccc([N+](=O)[O-])cc32)cc1 | – | 95% | – | –
25 | COc1ccc(Cn2c(=O)c(C(=O)NCCc3ccncc3)cc3c(N)cccc32)cc1 | 16% | 93% | – | –
26 | COc1ccc(Cn2c(=O)c(C(=O)NCCc3ccc(C)cc3)cc3c(N)cccc32)cc1 | – | 99% | – | –
27 | COc1ccc(Cn2c(=O)c(C(=O)NCCc3ccc(O)c(O)c3)cc3c(N)cccc32)cc1 | 14% | 98% | – | –
28 | CCc1ccc(Cn2c(=O)c(C(=O)NCCc3ccccc3)cc3c([N+](=O)[O-])cccc32)cc1 | – | 96% | 0.155 µM | inhibition at 10 µM [10]: 81%
29 | CC(C)c1ccc(Cn2c(=O)c(C(=O)NCCc3ccccc3)cc3c(Cl)cccc32)cc1 | – | 91% | 0.256 µM | –
30 | COc1ccc(Cn2c(=O)c(C(=O)NCCCc3ccccc3)cc3c(N)cccc32)cc1 | 11% | 97% | – | –
31 | COc1ccc(Cn2c(=O)c(C(=O)NCCc3ccccc3)cc3c([N+](=O)[O-])cccc32)cc1 | – | 96% | 0.924 µM | –
32 | N#Cc1ccc(Cn2c(=O)c(C(=O)NCCc3ccccc3)cc3c([N+](=O)[O-])cccc32)cc1 | 28% | 95% | – | –
33 | Cc1ccc(Cn2c(=O)c(C(=O)NCCc3ccccc3)cc3c([N+](=O)[O-])cccc32)cc1 | – | 81% | – | –
34 | COc1ccc(Cn2c(=O)c(C(=O)NCCc3ccc(Br)cc3)cc3c(N)cccc32)cc1 | 38% | 93% | – | –
